{
  "source": "paper PMC9775177",
  "about": "“NLRP3-Inflammasome Inhibition with IZD334 Does Not Reduce Cardiac Damage in a Pig Model of Myocardial Infarction” (Biomedicines, 2022)",
  "key": {"NLRP3-inflammasome [1]": {"tested_on": "NLRP3-inflammasome", "test": "In vitro stimulation of porcine whole blood with LPS and ATP, IL-1β release", "format": "cell-based", "procedure": "(§1) To confirm the ability of IZD334 to effectively attenuate porcine NLRP3-inflammasome signaling, we used a previously standardized study protocol. In short, porcine peripheral blood mononuclear cells (PBMCs) were isolated from healthy porcine animals. Whole blood samples and isolated PBMCs were stimulated with lipopolysaccharide (LPS) (1 µg/mL, L4516, Sigma-Aldrich, St. Louis, MO, USA) and increasing concentrations of IZD334. After three h of incubation, 5 mM adenosine triphosphate (ATP) (A1852, Sigma-Aldrich, St. Louis, MO, USA) was added for 1 h to induce inflammasome activation. IL-1β release was measured in the supernatant with a Luminex Immunoasssay specific for porcine IL-1β (EPX01A-66048-901, ProcartaTM Simplex, eBioscience, ThermoFisher, San Diego, CA, USA).\n(§2) In short, porcine peripheral blood mononuclear cells (PBMCs) were isolated from healthy porcine animals using Ficoll density-gradient centrifugation. Whole blood samples and isolated PBMCs were stimulated with lipopolysaccharide (LPS) (1 µg/mL, L4516, Sigma-Aldrich, St. Louis, MO, USA) and increasing concentrations of IZD334 (top concentration of 10 µM with an 8-point half-log dilution). After three h of incubation, 5 mM adenosine triphosphate (ATP) (A1852, Sigma-Aldrich, St. Louis, MO, USA) was added for 1 h to induce inflammasome activation. IL-1β release was measured in the supernatant with a Luminex Immunoasssay specific for porcine IL-1β (ProcartaTM Simplex, eBioscience, San Diego, CA, USA)."}, "NLRP3-inflammasome [2]": {"tested_on": "NLRP3-inflammasome", "test": "Ex vivo stimulation assay of whole blood after in vivo IZD334 infusion, IL-1β release", "parameters": "species or system pigs", "conditions": "whole blood taken 60 min after in vivo infusion of 10 mg/kg, LPS + ATP; before infusion 11856 ± 1969 ng/mL, p < 0.001", "procedure": "To more specifically determine in vivo target engagement, whole blood was obtained at baseline (prior to IZD334 infusion) and 60 min after in vivo IZD334 infusion (10 mg/kg). These samples were then stimulated with LPS and ATP in a similar fashion as in the previously described experiments. IL-1β release was measured in the supernatant with a Luminex Immunoassay specific for porcine IL-1β (ProcartaTM Simplex, eBioscience, San Diego, CA, USA)."}, "[3]": {"test": "Pharmacokinetics study in healthy pigs", "format": "in vivo", "procedure": "Healthy female pigs (n = 3) were given intravenous (IV) treatment with IZD334 (3 mg/kg) via a 30 min infusion, and blood was collected at multiple timepoints and analyzed to determine pharmacokinetics. After a wash-out period of 3 days, the pigs received an oral dose (10 mg/kg), and plasma was again collected and analyzed.\n(§3) In vivo IZD334 concentrations were measured in plasma samples using mass-spectrometry. IZD334 content was quantified using positive ionization mode and multiple reaction monitoring on a Sciex API 5500 Mass spectrometer (MRM transition: 392.0 > 176.1).\nAt multiple time points (0.033, 0.083, 0.17, 0.25, 0.50, 1.0, 2.0, 3.0, 4.0, 6.0, 8.0, 12.0, 24.0 h) after dosing, plasma was collected by whole-blood centrifugation at 1850× g, and samples were immediately stored to determine pharmacokinetics. After a wash-out period of 3 days, the pigs received an oral dose (10 mg/kg), and plasma was collected again at multiple time points (0.25, 0.50, 0.75, 1.0, 2.0, 3.0, 4.0, 6.0, 8.0, 12.0, 24.0 h) for pharmacokinetic purposes. Samples were sent to Sygnature Discovery (Nottingham, United Kingdom) to determine circulating levels of IZD334.\nThe volume of distribution at steady state (Vdss) is defined as the total concentration of IZD334 in the entire body divided by IZD334 plasma concentration. Drug clearance (Cl) was calculated by dividing the total administered dose with the area under the curve. Maximal concentration (Cmax) was obtained by calculating the mean of the highest concentrations of the separate pigs. Bioavailability (F%) was calculated using the following equation: (100 ∗ ((area under the curve oral dose × IV dose)/(area under the curve IV dose × oral dose)))."}, "[4]": {"test": "IZD334 plasma concentrations in pigs subjected to MI", "format": "in vivo", "procedure": "(§4) Oral treatment was continued for six days. […] Animals were sacrificed by exsanguination under anesthesia.\nas §3"}, "[5]": {"tested_on": "pig model of myocardial infarction", "test": "In vivo MI study: infarct size by Evans Blue TTC double staining", "conditions": "10 mg/kg IV loading dose, 7 days after MI", "quoted_text": "All animal experiments and analyses were performed in a blinded, randomized fashion. Thirty female pigs were subjected to closed-chest LAD coronary artery balloon occlusion for 75 min followed by 7 days of reperfusion. […] The control (PBS) group received an oral placebo. Oral treatment was continued for six days. All pigs underwent transthoracic and three-dimensional transesophageal echocardiography before induction of ischemia and after 7 days. Furthermore, on day 7, cardiac magnetic resonance (CMR) imaging was performed. Subsequently, the LAD was occluded at the exact same site as during infarct induction. After verification of complete vessel occlusion, Evans Blue (E2129, Sigma-Aldrich, St. Louis, MO, USA) solution was infused in the left and right coronary arteries in order to assess the area at risk (AAR). Animals were sacrificed by exsanguination under anesthesia. The heart was excised, cut into 5 slices, and incubated in 1% 2,3,5-triphenyltetrazolium chloride (TTC) (1.08380, Sigma-Aldrich, St. Louis, MO, USA) in 37 degrees 0.9% NaCl for 15 min to discriminate between infarct tissue and viable myocardium. Each slice was photographed at the basal and apical side with a ruler and analyzed with ImageJ software (NIH, Bethesda, MD, USA)."}, "NLRP3-inflammasome [6]": {"tested_on": "NLRP3-inflammasome", "test": "In vitro stimulation of porcine PBMCs with LPS and ATP, IL-1β release", "format": "cell-based", "conditions": "porcine PBMCs and whole blood, LPS 1 µg/mL 3 h, then 5 mM ATP 1 h", "procedure": "as §1\nas §2, with “After three h of incubation, 5 mM adenosine triphosphate (ATP) (A1852, Sigma-Aldrich, St. Louis, MO, USA) was added for 1 h to induce inflammasome activation.” left out"}, "[7]": {"tested_on": "pig model of myocardial infarction", "test": "In vivo MI study: cardiac volumes and function by cardiac magnetic resonance", "parameters": "species or system pigs", "conditions": "CMR, 10 mg/kg IV loading dose, 7 days after MI", "procedure": "as §4\nAnimals were placed on the CMR table in a supine position, under continuous sedation as described above. Steady-state free precession (SSFP) short axis images from the left ventricle (LV) base through the LV apex were used for the quantification of LV volumes, ejection fraction (EF), and mass. Imaging was performed using a respiratory-corrected, cardiac-gated SSFP in sequence. CMR images were anonymized and analyzed offline using MedisSuite (Medis Medical Imaging Systems, version 3.1, Leiden, The Netherlands)."}, "[8]": {"conditions": "healthy pigs n = 3, PO 10 mg/kg"}, "[9]": {"conditions": "then 1 mg/kg oral once daily, n = 6"}, "[10]": {"conditions": "then 3 mg/kg oral once daily, n = 6"}, "[11]": {"conditions": "then 3 mg/kg oral once daily, n = 7"}, "[12]": {"conditions": "then 10 mg/kg oral once daily, n = 7"}},
  "note": "Several values for one entry are separate records, joined by “and”; a condition that tells them apart may be missing. Equal values may be shown once.",
  "data": [
    {"smiles": "CCN1CCC(S(=O)(=O)[N-]C(=O)Nc2c3c(cc4c2CCC4)CCC3)CC1.[K+]", "note": "[IZD334]", "values": [
      {"measurement": "performance in whole blood assay compared with MCC950", "setting": "NLRP3-inflammasome [1]; porcine whole blood assay", "value": "performs as well as MCC950"},
      {"measurement": "IC50", "setting": "NLRP3-inflammasome [1]; porcine whole blood, LPS 1 µg/mL 3 h, then 5 mM ATP 1 h, read-out: half maximal inhibitory concentration (IC50), IL-1β release", "value": 350, "unit": "nM"},
      {"measurement": "LogIC50, whole blood stimulation", "setting": "NLRP3-inflammasome [1]; porcine whole blood, LPS + ATP, basis of log not printed (fits nM)", "value": 2.545},
      {"measurement": "IL-1β release after ex vivo stimulation", "setting": "NLRP3-inflammasome [2]", "value": 3968, "unit": "ng/mL"},
      {"measurement": "AUC0-inf (ng.h/mL)", "setting": "[3]; healthy pigs n = 3, IV 3 mg/kg", "value": "27,786 ng.h/mL"},
      {"measurement": "Cl", "setting": "[3]; healthy pigs n = 3, IV 3 mg/kg", "value": 1.8, "unit": "mL/min/kg"},
      {"measurement": "MRT0-inf", "setting": "[3]; healthy pigs n = 3, IV 3 mg/kg", "value": 5.3, "unit": "h"},
      {"measurement": "Vdss", "setting": "[3]; healthy pigs n = 3, IV 3 mg/kg", "value": 0.58, "unit": "L/kg"},
      {"measurement": "T1/2", "setting": "[3]; healthy pigs n = 3, IV 3 mg/kg, 30 min infusion", "value": 3.9, "unit": "h"},
      {"measurement": "AUC0-inf (ng.h/mL)", "setting": "[3]; [8]", "value": "86,337 ng.h/mL"},
      {"measurement": "Cmax (ng/mL)", "setting": "[3]; [8]", "value": "12,116 ng/mL"},
      {"measurement": "F% (bioavailability)", "setting": "[3]; healthy pigs n = 3, PO 10 mg/kg versus IV 3 mg/kg", "value": 93, "unit": "%"},
      {"measurement": "time that plasma concentrations sufficient for effective inhibition were maintained", "setting": "[3]; healthy pigs, IV 3 mg/kg, based on extrapolation of in vitro results", "value": 24, "unit": "h"},
      {"measurement": "circulating levels 24 h after compound administration", "setting": "[3]; healthy pigs, PO 10 mg/kg", "value": "adequate circulating levels"},
      {"measurement": "Concentration (ng/mL) Mean", "setting": "[4]; 1 mg/kg group (10 mg/kg IV loading dose), Reperfusion + 4 h, n = 6", "value": "13,192 ng/mL"},
      {"measurement": "Concentration (ng/mL) Mean", "setting": "[4]; 1 mg/kg oral once daily group, Day 1, n = 6", "value": 1434, "unit": "ng/mL"},
      {"measurement": "Concentration (ng/mL) Mean", "setting": "[4]; 1 mg/kg oral once daily group, Day 2, n = 6", "value": 795, "unit": "ng/mL"},
      {"measurement": "Concentration (ng/mL) Mean", "setting": "[4]; 1 mg/kg oral once daily group, Day 3, n = 6", "value": 555, "unit": "ng/mL"},
      {"measurement": "Concentration (ng/mL) Mean", "setting": "[4]; 1 mg/kg oral once daily group, Day 7, n = 6", "value": 44, "unit": "ng/mL"},
      {"measurement": "Concentration (ng/mL) Mean", "setting": "[4]; 3 mg/kg group (10 mg/kg IV loading dose), Reperfusion + 4 h, n = 7", "value": "11,992 ng/mL"},
      {"measurement": "Concentration (ng/mL) Mean", "setting": "[4]; 3 mg/kg oral once daily group, Day 1, n = 7", "value": 2090, "unit": "ng/mL"},
      {"measurement": "Concentration (ng/mL) Mean", "setting": "[4]; 3 mg/kg oral once daily group, Day 2, n = 7", "value": 1501, "unit": "ng/mL"},
      {"measurement": "Concentration (ng/mL) Mean", "setting": "[4]; 3 mg/kg oral once daily group, Day 3, n = 7", "value": 1190, "unit": "ng/mL"},
      {"measurement": "Concentration (ng/mL) Mean", "setting": "[4]; 3 mg/kg oral once daily group, Day 7, n = 7", "value": 120, "unit": "ng/mL"},
      {"measurement": "Concentration (ng/mL) Mean", "setting": "[4]; 10 mg/kg group (10 mg/kg IV loading dose), Reperfusion + 4, n = 7", "value": "12,312 ng/mL"},
      {"measurement": "Concentration (ng/mL) Mean", "setting": "[4]; 10 mg/kg oral once daily group, Day 1, n = 7", "value": 4522, "unit": "ng/mL"},
      {"measurement": "Concentration (ng/mL) Mean", "setting": "[4]; 10 mg/kg oral once daily group, Day 2, n = 7", "value": 4213, "unit": "ng/mL"},
      {"measurement": "Concentration (ng/mL) Mean", "setting": "[4]; 10 mg/kg oral once daily group, Day 3, n = 7", "value": 3887, "unit": "ng/mL"},
      {"measurement": "Concentration (ng/mL) Mean", "setting": "[4]; 10 mg/kg oral once daily group, Day 7, n = 7", "value": 233, "unit": "ng/mL"},
      {"measurement": "AAR/LV ± SD", "setting": "[5]; [9]", "value": "23.5 ± 3.2", "unit": "%"},
      {"measurement": "IS/AAR ± SD", "setting": "[5]; [9]", "value": "75.5 ± 7.3% and 75.5%"},
      {"measurement": "IS/LV ± SD", "setting": "[5]; [9]", "value": "17.7 ± 6.3", "unit": "%"},
      {"measurement": "AAR/LV ± SD", "setting": "[5]; [10]", "value": "26.0 ± 1.9", "unit": "%"},
      {"measurement": "IS/AAR ± SD", "setting": "[5]; [10]", "value": "80.3 ± 3.9", "unit": "%"},
      {"measurement": "IS/LV ± SD", "setting": "[5]; [11]", "value": "20.5 ± 2.2", "unit": "%"},
      {"measurement": "AAR/LV ± SD", "setting": "[5]; [12]", "value": "26.4 ± 6.6", "unit": "%"},
      {"measurement": "IS/AAR ± SD", "setting": "[5]; [12]", "value": "78.2 ± 8.0% and 78.2%"},
      {"measurement": "IS/LV ± SD", "setting": "[5]; [12]", "value": "19.3 ± 2.9", "unit": "%"},
      {"measurement": "IL-1β release", "setting": "NLRP3-inflammasome [6]", "value": "dose-dependently reduced IL-1β release"},
      {"measurement": "EDV", "setting": "[7]; [9]", "value": "150 ± 26 mL and 149.6 ± 26.2 mL"},
      {"measurement": "EF%", "setting": "[7]; [9]", "value": "49.9 ± 6.1", "unit": "%"},
      {"measurement": "ESV", "setting": "[7]; [9]", "value": "72 ± 19 mL and 71.5 ± 18.7 mL"},
      {"measurement": "EDV", "setting": "[7]; [11]", "value": "151 ± 8 mL and 151.4 ± 7.6 mL"},
      {"measurement": "EF%", "setting": "[7]; [11]", "value": "42.7 ± 3.8", "unit": "%"},
      {"measurement": "ESV", "setting": "[7]; [11]", "value": "87 ± 8 mL and 86.8 ± 8.2 mL"},
      {"measurement": "EDV", "setting": "[7]; [12]", "value": "144 ± 22 mL and 144.0 ± 22.0 mL"},
      {"measurement": "EF%", "setting": "[7]; [12]", "value": "44.9 ± 6.4", "unit": "%"},
      {"measurement": "ESV", "setting": "[7]; [12]", "value": "80 ± 19 mL and 80.0 ± 18.9 mL"}
    ]}
  ]
}
